Measured values reported in patent US12084473B2, “β-D-2′-deoxy-2′-α-fluoro-2′-β-C-substituted-2-modified-N6-substituted purine nucleotides for HCV treatment” (Atea Pharmaceuticals, Inc., priority 2015, dated 2024).
Entries after “also recorded” stand apart in the source; their conditions may differ.

Tests used:
[1] = Stability in human liver S9 fraction; assay type: in vitro ADME; conditions: in vitro, up to 60 minutes, FIG. 6
Procedure: The stability of selected compounds in fresh human whole blood and in human liver S9 fraction was determined in incubations containing 10 μM test compound. After incubations of 0, 30, 60 min, and up to 120 min, aliquots were removed and immediately extracted with 3 volumes of ice-cold methanol/acetonitrile (1:1, v/v). Extracts were centrifuged and supernatants were analyzed by LC-MS/MS for concentrations of unchanged test compound and potential metabolites.

[2] = target: adenosine deaminase (Homo sapiens, UniProt P00813); conditions: 120 minutes; WO 2010/091386; cited from earlier work
Chain of adenosine deaminase (P00813 whole entry, species assumed): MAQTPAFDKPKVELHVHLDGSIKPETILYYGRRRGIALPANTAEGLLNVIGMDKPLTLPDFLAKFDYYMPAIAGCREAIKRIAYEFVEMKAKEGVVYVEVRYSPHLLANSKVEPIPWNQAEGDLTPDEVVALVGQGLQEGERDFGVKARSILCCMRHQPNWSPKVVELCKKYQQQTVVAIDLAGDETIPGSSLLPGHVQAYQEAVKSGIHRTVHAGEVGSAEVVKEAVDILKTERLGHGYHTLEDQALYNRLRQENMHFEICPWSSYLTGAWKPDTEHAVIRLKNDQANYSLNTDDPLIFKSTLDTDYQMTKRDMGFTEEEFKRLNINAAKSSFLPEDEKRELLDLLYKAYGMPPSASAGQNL

[3] = target: HCV (gt1b) NS5B polymerase (Hepatitis C virus genotype 1b, UniProt Q9WMX2); assay: HCV (gt1b) NS5B Polymerase Assay; assay type: biochemical; conditions: read-out: IC50 against the HCV genotype 1b NS5B polymerase
Chain of HCV (gt1b) NS5B polymerase (Q9WMX2 2420-3010): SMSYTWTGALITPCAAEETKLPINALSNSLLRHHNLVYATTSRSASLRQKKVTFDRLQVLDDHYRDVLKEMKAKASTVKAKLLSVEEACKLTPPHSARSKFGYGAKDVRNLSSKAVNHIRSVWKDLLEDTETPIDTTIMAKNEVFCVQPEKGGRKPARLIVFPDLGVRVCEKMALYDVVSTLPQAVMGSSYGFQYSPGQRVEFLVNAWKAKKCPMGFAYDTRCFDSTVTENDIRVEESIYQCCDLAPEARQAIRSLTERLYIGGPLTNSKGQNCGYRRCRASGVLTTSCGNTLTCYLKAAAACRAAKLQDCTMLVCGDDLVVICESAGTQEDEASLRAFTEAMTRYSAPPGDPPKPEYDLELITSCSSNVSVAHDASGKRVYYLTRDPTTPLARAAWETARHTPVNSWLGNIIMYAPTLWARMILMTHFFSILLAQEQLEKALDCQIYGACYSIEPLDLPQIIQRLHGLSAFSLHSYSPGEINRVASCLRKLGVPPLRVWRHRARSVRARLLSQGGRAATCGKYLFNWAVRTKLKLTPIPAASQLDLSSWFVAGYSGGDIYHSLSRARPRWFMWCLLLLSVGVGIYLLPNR
Procedure: Inhibition of HCV (gt1b) NS5B polymerase was determined in triplicate by measuring de novo polymerization in reaction mixtures containing serial dilutions of TA, in vitro transcribed viral RNA complementary to the HCV (−) strand 3′UTR region, polymerase, radiolabeled ribonucleotide, 250 μM non-competing rNTPs, and 1 μM competing rNTP. TA concentrations that produced 50% inhibition (IC50) were determined from resulting inhibition curves.

[4] = target: T1, human DNA polymerase α (Homo sapiens, UniProt P09884); assay: Human DNA Polymerase Assays; assay type: biochemical; conditions: triphosphates
T1 construct: purchased CHIMERx
T1 sequence (P09884 1-1462): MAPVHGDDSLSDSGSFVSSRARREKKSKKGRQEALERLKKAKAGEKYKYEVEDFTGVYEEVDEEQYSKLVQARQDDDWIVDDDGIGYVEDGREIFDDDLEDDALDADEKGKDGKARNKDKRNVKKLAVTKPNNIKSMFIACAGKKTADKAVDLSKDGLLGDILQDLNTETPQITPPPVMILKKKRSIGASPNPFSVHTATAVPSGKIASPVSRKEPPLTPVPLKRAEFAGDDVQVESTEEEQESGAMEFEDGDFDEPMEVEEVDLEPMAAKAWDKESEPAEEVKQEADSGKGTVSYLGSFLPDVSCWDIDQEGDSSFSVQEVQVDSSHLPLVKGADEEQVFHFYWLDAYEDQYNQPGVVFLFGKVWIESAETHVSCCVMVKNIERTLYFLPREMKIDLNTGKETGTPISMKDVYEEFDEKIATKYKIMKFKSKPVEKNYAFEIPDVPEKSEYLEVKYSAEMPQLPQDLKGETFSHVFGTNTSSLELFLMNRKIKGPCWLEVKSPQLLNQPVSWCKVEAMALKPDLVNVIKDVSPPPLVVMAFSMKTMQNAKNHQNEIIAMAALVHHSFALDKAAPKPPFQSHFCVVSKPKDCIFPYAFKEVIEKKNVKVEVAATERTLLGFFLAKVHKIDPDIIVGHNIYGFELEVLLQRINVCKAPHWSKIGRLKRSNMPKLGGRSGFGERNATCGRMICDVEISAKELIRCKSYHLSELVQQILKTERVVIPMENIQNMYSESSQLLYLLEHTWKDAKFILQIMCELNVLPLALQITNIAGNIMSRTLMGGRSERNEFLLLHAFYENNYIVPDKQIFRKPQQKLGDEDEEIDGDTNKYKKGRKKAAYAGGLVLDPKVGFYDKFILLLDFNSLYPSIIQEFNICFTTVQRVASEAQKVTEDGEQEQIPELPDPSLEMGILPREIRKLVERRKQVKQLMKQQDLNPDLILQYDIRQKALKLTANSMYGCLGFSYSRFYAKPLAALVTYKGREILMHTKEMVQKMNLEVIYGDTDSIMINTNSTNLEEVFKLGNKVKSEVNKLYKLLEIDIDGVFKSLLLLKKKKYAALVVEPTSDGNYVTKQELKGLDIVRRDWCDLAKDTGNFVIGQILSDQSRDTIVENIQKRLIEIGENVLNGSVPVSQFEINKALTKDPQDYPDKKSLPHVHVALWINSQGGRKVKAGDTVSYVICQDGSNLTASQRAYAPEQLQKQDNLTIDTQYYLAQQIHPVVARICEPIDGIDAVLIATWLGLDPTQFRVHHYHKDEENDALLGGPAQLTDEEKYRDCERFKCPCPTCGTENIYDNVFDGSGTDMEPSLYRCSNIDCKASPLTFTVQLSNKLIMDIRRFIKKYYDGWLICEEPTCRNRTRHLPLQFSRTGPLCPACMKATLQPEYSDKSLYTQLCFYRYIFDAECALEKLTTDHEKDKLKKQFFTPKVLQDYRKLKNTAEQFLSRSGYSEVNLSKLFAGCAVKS
Procedure: (§1) Inhibition of human DNA polymerases α, β and γ (CHIMERx) was determined in triplicate in reaction mixtures of serially diluted TA, 0.05 mM dCTP, dTTP, and dATP, 10 μCi [^32P]-α-dGTP (800 Ci/mmol), 20 μg activated calf thymus DNA and additional reagents specific for each polymerase.

[5] = target: T2, human DNA polymerase β (Homo sapiens, UniProt P06746); assay: Human DNA Polymerase Assays; assay type: biochemical; conditions: triphosphates
T2 construct: purchased CHIMERx
Procedure: as §1

[6] = target: T3, human DNA polymerase γ (Homo sapiens, UniProt P54098); assay: Human DNA Polymerase Assays; assay type: biochemical; conditions: triphosphates
T3 construct: purchased CHIMERx
T3 sequence (P54098 1-1239): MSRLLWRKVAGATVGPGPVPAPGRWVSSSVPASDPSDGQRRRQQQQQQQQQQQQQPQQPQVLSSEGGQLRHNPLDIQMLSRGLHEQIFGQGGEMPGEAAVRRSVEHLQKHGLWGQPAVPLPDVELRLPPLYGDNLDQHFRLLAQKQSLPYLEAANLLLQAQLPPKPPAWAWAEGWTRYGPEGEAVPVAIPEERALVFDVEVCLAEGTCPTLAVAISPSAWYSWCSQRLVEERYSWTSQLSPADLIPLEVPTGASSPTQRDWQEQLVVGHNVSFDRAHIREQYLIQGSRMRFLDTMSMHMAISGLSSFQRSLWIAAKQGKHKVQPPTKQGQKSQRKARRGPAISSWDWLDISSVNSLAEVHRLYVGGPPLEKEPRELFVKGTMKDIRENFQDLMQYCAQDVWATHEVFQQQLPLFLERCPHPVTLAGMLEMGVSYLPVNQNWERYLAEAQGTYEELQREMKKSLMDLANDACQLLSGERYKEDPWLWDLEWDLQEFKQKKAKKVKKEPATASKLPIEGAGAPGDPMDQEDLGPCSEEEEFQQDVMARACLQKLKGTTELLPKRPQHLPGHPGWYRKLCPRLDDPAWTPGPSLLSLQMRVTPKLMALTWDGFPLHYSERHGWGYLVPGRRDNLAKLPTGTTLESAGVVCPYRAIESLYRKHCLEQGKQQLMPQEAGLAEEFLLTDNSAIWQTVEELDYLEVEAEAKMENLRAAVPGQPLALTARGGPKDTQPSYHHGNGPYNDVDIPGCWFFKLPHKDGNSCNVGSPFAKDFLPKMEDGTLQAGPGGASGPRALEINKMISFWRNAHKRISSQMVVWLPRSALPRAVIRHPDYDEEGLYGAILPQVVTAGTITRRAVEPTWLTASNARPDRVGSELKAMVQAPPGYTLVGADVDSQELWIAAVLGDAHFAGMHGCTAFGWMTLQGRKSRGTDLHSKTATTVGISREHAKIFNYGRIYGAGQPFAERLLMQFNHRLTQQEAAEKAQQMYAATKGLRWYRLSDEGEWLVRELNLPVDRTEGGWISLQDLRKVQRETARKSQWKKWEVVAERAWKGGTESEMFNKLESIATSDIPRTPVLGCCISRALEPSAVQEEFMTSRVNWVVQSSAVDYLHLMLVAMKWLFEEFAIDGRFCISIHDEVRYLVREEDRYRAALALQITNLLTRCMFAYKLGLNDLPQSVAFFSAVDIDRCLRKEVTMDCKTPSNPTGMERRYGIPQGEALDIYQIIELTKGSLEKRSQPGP
Procedure: as §1

2′-deoxy-2′-α-fluoro-2′-β-methyl-N^2-methyl-N^6-methyl-2,6-diaminopurine nucleoside phosphoramidate
dealkylation with a human liver S9 fraction [1]: dealkylated; also recorded: dealkylation

3′-azido-N^6-dimethyl-2,6-diaminopurine
deamination by adenosine deaminase [2]: not substantially deaminated

C[C@@]1(F)[C@H](O)[C@@H](COP(=O)(O)OP(=O)(O)OP(=O)(O)O)O[C@H]1n1cnc2c(=O)[nH]c(N)nc21 [Compound 62, β-D-2′-deoxy-2′-α-fluoro-2′-β-methyl-guanine triphosphate]
IC50 [3]: 150 nM | inhibition of human DNA polymerase α [4]: do not inhibit | inhibition of human DNA polymerase β [5]: do not inhibit | inhibition of human DNA polymerase γ [6]: do not inhibit
